Assays:
Assay in all cases: relative viability (nuclei count vs DMSO), 5 days (fraction); higher = more cells survive
[1] = compound: CC1=CC(=CC=C1)NC2=NC(=CS2)C3=CC=NC=C3
How it was run: (§1)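 Vehicle-anchored 1536-well plates of lung cancer cell lines, held overnight at 37 °C, were pinned with five library-drug doses (not always all listed) spaced by √10. No medium change followed over the next 5 days, after which the cells were fixed, permeabilised and Hoechst-stained together and imaged at 4×. Nuclei were counted with MetaXpress, and viability is treated-well nuclei over vehicle-well nuclei, taken as a median across plates. Plates passed with control CV below 25% and at least one doubling.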

Masitinib = compound: Cc1ccc(NC(=O)c2ccc(CN3CCN(C)CC3)cc2)cc1Nc1nc(-c2cccnc2)cs1 [Masitinib]
How it was run: as §1

Masitinib + Bortezomib = compound: Cc1ccc(NC(=O)c2ccc(CN3CCN(C)CC3)cc2)cc1Nc1nc(-c2cccnc2)cs1 [Masitinib] + CC(C)C[C@H](NC(=O)[C@H](Cc1ccccc1)NC(=O)c1cnccn1)B(O)O [Bortezomib] (partner 0.002 µM)
How it was run: (§2)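 Cells from lung cancer lines were seeded into 1536-well plates and, one day later, dosed by pin tool. Treatments were either a single drug or a fixed dose of an anchor drug with five library-drug doses (not always all listed) in √10 steps. After 5 days, nuclei were stained in a one-step fixation (final 0.05% Triton X-100, 1% formaldehyde, 1 ug/ml Hoechst) and counted on 4× images, and relative viability is the treated-to-vehicle nuclei ratio, as the median of duplicate plates.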

[2] = compound: CC1=CC(=CC=C1)NC2=NC(=CS2)C3=CC=NC=C3 + Cc1nc(NC(=O)N2CCC[C@H]2C(N)=O)sc1-c1ccnc(C(C)(C)C(F)(F)F)c1 [Alpelisib] (partner 2 µM)
How it was run: as §2

Cell Line	relative viability ([1]; 0.08 µM)	relative viability ([1]; 0.253 µM)	relative viability ([1]; 0.8 µM)	relative viability ([1]; 2.53 µM)	relative viability ([1]; 8 µM)	relative viability (Masitinib; 0.01 µM)	relative viability (Masitinib; 0.03162 µM)	relative viability (Masitinib; 0.1 µM)	relative viability (Masitinib; 0.3162 µM)	relative viability (Masitinib; 1 µM)	relative viability (Masitinib + Bortezomib; first compound 0.01 µM)	relative viability (Masitinib + Bortezomib; first compound 0.03162 µM)	relative viability (Masitinib + Bortezomib; first compound 0.1 µM)	relative viability (Masitinib + Bortezomib; first compound 0.3162 µM)	relative viability (Masitinib + Bortezomib; first compound 1 µM)	relative viability ([2]; first compound 0.08 µM)	relative viability ([2]; first compound 0.253 µM)	relative viability ([2]; first compound 0.8 µM)	relative viability ([2]; first compound 2.53 µM)	relative viability ([2]; first compound 8 µM)
NCI-H1734	0.864	0.952	1.03	0.988	0.96	0.957	1.08	1.06	0.976	0.942	0.899	0.772	1.01	0.949	0.853	0.615	0.683	0.672	0.757	0.687
Calu-6	0.894	0.936	0.873	0.943	0.87	0.98	1.04	1.06	0.977	0.985	0.903	1.04	1.07	0.774	0.876	0.886	0.744	0.906	0.957	0.919
EBC-1	0.788	0.882	0.865	0.823	0.685	0.988	0.946	1.2	0.984	0.834	0.493	0.518	0.514	0.479	0.573	0.644	0.744	0.773	0.809	0.712
A-427	0.864	0.951	0.968	0.859	0.878	–	0.951	0.69	1.08	0.931	–	0.977	–	0.99	1.06	1.03	1.06	1.1	–	0.844
NCI-H2405	0.851	0.918	0.85	0.915	0.901	0.859	0.953	0.907	0.973	0.932	0.929	0.878	0.879	0.944	0.948	0.679	0.799	0.578	0.87	0.699
NCI-H1437	0.976	0.882	0.938	0.874	0.856	0.838	0.93	1.06	0.986	0.85	0.468	0.637	0.585	0.577	0.438	1.03	0.968	0.885	0.922	0.763
RERF-LC-KJ	0.945	0.91	0.834	0.751	0.714	0.922	0.943	1.03	0.963	0.829	0.939	1	1.07	1.09	1	1.01	0.83	0.773	0.715	0.654
NCI-H23	0.879	0.808	1.01	0.835	0.972	0.888	0.926	1.03	0.933	0.916	1.06	1.05	1.14	1.03	1.11	0.567	0.677	0.727	0.634	0.738
HOP-62	0.952	0.972	1.08	0.997	0.966	0.954	0.995	0.962	1.08	1.01	0.573	0.598	0.845	0.799	0.769	0.932	0.809	1.1	1.06	1.17
HARA	0.741	0.975	0.815	0.685	0.735	0.844	0.874	0.772	0.742	0.909	1.05	1.09	1.18	1.17	1.04	0.621	0.513	0.596	0.724	0.542
PC-14	0.94	0.899	0.943	0.917	0.766	0.916	0.943	1.01	1.01	1.01	0.786	0.878	0.857	0.84	0.846	0.942	0.988	0.851	0.989	0.94
NCI-H1792	0.746	0.698	0.793	0.653	0.753	0.76	0.76	1.04	0.814	0.735	0.759	0.387	0.945	0.994	1.01	0.628	0.523	0.567	0.443	0.589
HCC-78	0.781	0.789	0.811	0.817	0.971	0.891	0.814	0.956	0.789	0.902	0.49	0.419	0.515	0.406	0.394	0.26	0.284	0.365	0.317	0.366
IA-LM	0.856	0.772	0.9	0.76	0.677	0.885	0.901	1.01	0.977	0.982	0.85	0.975	0.836	0.681	1.05	0.706	–	0.815	0.533	0.673
NCI-H441	0.957	1	1.01	0.922	0.866	1.01	0.956	1.09	1.25	1.07	0.777	0.451	0.658	0.673	0.448	0.659	0.75	0.73	0.577	0.811
NCI-H322M	0.819	0.845	0.948	1.02	0.961	0.934	0.948	0.933	0.897	0.848	1.23	1.11	1.26	1.21	1.17	0.747	0.868	0.771	0.903	0.853

Cell Line	relative viability ([1]; 0.08 µM)	relative viability ([1]; 0.253 µM)	relative viability ([1]; 0.8 µM)	relative viability ([1]; 2.53 µM)	relative viability ([1]; 8 µM)	relative viability (Masitinib; 0.01 µM)	relative viability (Masitinib; 0.03162 µM)	relative viability (Masitinib; 0.1 µM)	relative viability (Masitinib; 0.3162 µM)	relative viability (Masitinib; 1 µM)	relative viability (Masitinib + Bortezomib; first compound 0.01 µM)	relative viability (Masitinib + Bortezomib; first compound 0.03162 µM)	relative viability (Masitinib + Bortezomib; first compound 0.1 µM)	relative viability (Masitinib + Bortezomib; first compound 0.3162 µM)	relative viability (Masitinib + Bortezomib; first compound 1 µM)	relative viability ([2]; first compound 0.08 µM)	relative viability ([2]; first compound 0.253 µM)	relative viability ([2]; first compound 0.8 µM)	relative viability ([2]; first compound 2.53 µM)	relative viability ([2]; first compound 8 µM)
LU99A	0.877	0.917	0.972	0.997	0.956	1.03	0.94	1.09	1.06	0.916	1.03	1.12	1.02	1.21	1.07	–	0.49	0.433	0.428	0.443
COR-L23	0.981	0.986	0.926	0.877	0.989	1.02	0.969	1.06	0.984	0.981	0.924	0.806	1.11	1.26	0.972	0.607	0.609	0.508	0.611	0.71
NCI-H2126	0.881	0.864	0.893	0.824	0.863	0.908	0.996	0.978	0.847	0.931	1.05	1.17	1.1	1.03	1.11	0.664	0.689	0.727	0.71	0.634
LC-2-ad	0.877	0.916	0.967	0.839	0.785	0.806	1.01	0.951	0.966	0.944	0.816	0.992	0.926	0.996	0.93	0.859	0.698	0.812	0.813	0.817
NCI-H1975	0.798	0.762	0.843	0.714	0.549	0.983	0.923	1.06	0.676	0.852	0.378	0.319	0.388	0.319	0.373	0.609	0.5	0.553	0.475	0.358
NCI-H2085	0.99	1	0.968	0.94	0.826	0.891	0.983	1.01	1.05	0.958	0.87	0.99	1.03	1.27	1.06	0.887	1.02	0.946	0.833	0.705
COR-L 105	0.742	0.901	0.818	0.776	0.667	0.944	0.894	0.976	0.856	0.897	0.695	0.699	0.823	0.823	0.725	0.956	0.794	0.869	0.773	0.715
SK-LU-1	0.996	1.03	0.702	1.1	0.968	1.05	1.05	1.13	1.24	1.02	1.2	1.13	1.28	1.24	0.899	0.955	0.934	0.617	0.992	0.852
NCI-H1299	0.981	0.997	0.968	1.02	0.937	1.06	1.01	1.05	1.04	0.984	0.985	1.05	0.995	1.01	1	1.04	1.01	1.05	1.05	0.988
PC-3 [JPC-3]	0.941	0.936	0.927	0.868	0.91	0.95	0.951	1.04	1.04	1.02	0.833	0.936	0.784	0.878	0.841	0.95	0.939	0.845	0.875	0.84
NCI-H661	0.907	0.944	0.913	0.914	0.99	0.9	0.977	0.986	0.967	0.947	0.867	0.74	0.927	0.761	0.585	0.469	0.462	0.971	0.724	1.01
NCI-H1703	0.831	0.977	0.907	0.986	0.946	0.866	0.821	0.526	0.32	0.261	0.29	0.246	0.229	0.269	0.174	0.391	0.294	0.408	0.354	0.323
NCI-H2087	0.951	0.895	1.01	0.877	0.93	0.961	1.22	1.07	1.18	1.01	0.544	0.741	0.756	0.958	0.779	0.931	1.14	0.772	1.29	0.932
NCI-H1755	0.926	0.942	0.866	0.857	0.697	–	0.935	0.886	1.02	0.935	–	0.966	0.832	0.907	0.816	0.869	0.856	0.826	0.815	0.548
NCI-H2228	0.838	0.948	0.784	0.91	0.726	0.998	0.808	1.16	1.04	1.06	1.07	1.68	1.05	1.25	0.975	0.476	0.644	0.612	0.688	0.502
EMC-BAC-2	0.834	0.712	1.01	0.838	0.885	0.78	0.784	0.893	0.937	0.927	0.942	1.04	0.974	1.15	1.05	0.66	0.747	0.702	0.779	0.719
